The supplement of paper PMC10307832

Tests used:
Experiment in all cases: relative viability (nuclei count vs DMSO), 5 days (fraction); higher = more cells survive
VX-11e + Linsitinib = compound: CC1=CN=C(N=C1C2=CNC(=C2)C(=O)N[C@H](CO)C3=CC(=CC=C3)Cl)NC4=C(C=C(C=C4)F)Cl [VX-11e] + C[C@]1(O)C[C@@H](c2nc(-c3ccc4ccc(-c5ccccc5)nc4c3)c3c(N)nccn32)C1 [Linsitinib] (partner 1 µM)
Method in brief: (§1)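 Relative viability equals treated-well nuclei counts divided by vehicle-well nuclei counts. Counts came from 4× images of lung cancer cell lines grown in 1536-well plates for 5 days after pin-tool dosing on the day after seeding. Dosing used one drug alone or a fixed anchor-drug dose plus five library-drug doses (not always all listed) in √10 steps, and values are medians of duplicate plates.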

VX-11e + Alpelisib = compound: CC1=CN=C(N=C1C2=CNC(=C2)C(=O)N[C@H](CO)C3=CC(=CC=C3)Cl)NC4=C(C=C(C=C4)F)Cl [VX-11e] + Cc1nc(NC(=O)N2CCC[C@H]2C(N)=O)sc1-c1ccnc(C(C)(C)C(F)(F)F)c1 [Alpelisib] (partner 2 µM)
Method in brief: as §1

VX-11e + Pictilisib = compound: CC1=CN=C(N=C1C2=CNC(=C2)C(=O)N[C@H](CO)C3=CC(=CC=C3)Cl)NC4=C(C=C(C=C4)F)Cl [VX-11e] + CS(=O)(=O)N1CCN(Cc2cc3nc(-c4cccc5[nH]ncc45)nc(N4CCOCC4)c3s2)CC1 [Pictilisib] (partner 1 µM)
Method in brief: as §1

VX-11e + Decitabine = compound: CC1=CN=C(N=C1C2=CNC(=C2)C(=O)N[C@H](CO)C3=CC(=CC=C3)Cl)NC4=C(C=C(C=C4)F)Cl [VX-11e] + Nc1ncn([C@H]2C[C@H](O)[C@@H](CO)O2)c(=O)n1 [Decitabine] (partner 2 µM)
Method in brief: as §1

Cell Line	relative viability (VX-11e + Linsitinib; first compound 0.04 µM)	relative viability (VX-11e + Linsitinib; first compound 0.1265 µM)	relative viability (VX-11e + Linsitinib; first compound 0.4 µM)	relative viability (VX-11e + Linsitinib; first compound 1.265 µM)	relative viability (VX-11e + Linsitinib; first compound 4 µM)	relative viability (VX-11e + Alpelisib; first compound 0.04 µM)	relative viability (VX-11e + Alpelisib; first compound 0.1265 µM)	relative viability (VX-11e + Alpelisib; first compound 0.4 µM)	relative viability (VX-11e + Alpelisib; first compound 1.265 µM)	relative viability (VX-11e + Alpelisib; first compound 4 µM)	relative viability (VX-11e + Pictilisib; first compound 0.04 µM)	relative viability (VX-11e + Pictilisib; first compound 0.1265 µM)	relative viability (VX-11e + Pictilisib; first compound 0.4 µM)	relative viability (VX-11e + Pictilisib; first compound 1.265 µM)	relative viability (VX-11e + Pictilisib; first compound 4 µM)	relative viability (VX-11e + Decitabine; first compound 0.04 µM)	relative viability (VX-11e + Decitabine; first compound 0.1265 µM)	relative viability (VX-11e + Decitabine; first compound 0.4 µM)	relative viability (VX-11e + Decitabine; first compound 1.265 µM)	relative viability (VX-11e + Decitabine; first compound 4 µM)
NCI-H1355	0.861	0.798	0.786	0.574	0.374	0.725	0.687	0.88	0.572	0.302	0.263	0.194	0.166	0.3	0.232	0.401	0.376	0.34	0.413	0.31
SK-LU-1	0.597	0.925	1.31	0.771	0.316	1.26	1.1	1.05	0.592	0.263	0.442	0.551	0.249	0.37	0.195	0.619	0.589	0.472	0.668	0.308
NCI-H727	0.314	0.252	0.215	0.274	0.184	0.432	0.497	0.438	0.333	0.254	0.243	0.451	0.314	0.238	0.173	0.599	1.07	0.72	0.638	0.421
NCI-H2126		0.735	0.689	0.677	0.556		0.755	0.747	0.68	0.578		0.518	0.393	0.384	0.392	0.561	0.608	0.558	0.614	0.573
NCI-H596	1.06	0.944	0.981	0.874	0.769	0.504	0.458	0.459	0.48	0.357	0.377	0.429	0.378	0.431	0.319	0.864	1.05	1.01	0.998	0.834
PC-14	1	0.866	0.953	0.961	0.665	1.13	0.916	0.676	0.918	0.459	0.661	0.619	0.583	0.494	0.207	0.243	0.19	0.202	0.247	0.235
NCI-H1793		0.687		0.818	0.514		0.519		0.539	0.301		0.329		0.273	0.232		0.406		0.516	0.351
NCI-H1915	1.21	1.12	1.19	1.04	0.857	1.08	0.973	1.08	0.978	0.652	0.556	0.757	0.636	0.627	0.282	0.246	0.264	0.25	0.264	0.238
NCI-H1437	1.03	1.05	0.888	0.409	0.203	0.996	0.869	0.891	0.642	0.247	0.36	0.281	0.356	0.163	0.124	0.589	0.519	0.517	0.602	0.494
